Assay results published in US8552048B2, “Phosphoramidate alkylator prodrugs for the treatment of cancer” (Threshold Pharmaceuticals, Inc., priority 2006, dated 2013).
Where “and” joins values, the source holds several entries; their conditions need not be identical. Equal entries are not always repeated. Entries after “also recorded” stand apart in the source; their conditions may differ. Where two headings read alike, the source gives them in different places.

Columns and labels:
[1] = system: H460 xenograft tumor; experiment: H460 xenograft, TH302 in combination with X-ray radiation; assay type: in vivo, mice; details: X-ray 1.2 Gy/day for 5 days with TH302 ip 75 mg/kg per day for 5 days, 30 min after each radiation dose; 75 mg/kg/day
Description: H460 xenograft tumor bearing mice were treated with X-ray radiation (one cycle of 1.2 Gy/day for 5 days) alone and in combination with TH302 (administered ip, 75 mg/kg per day for 5 consecutive days 30 min after each radiation dose). […] The oxygen radicals involved in killing tumor cells, and which are generated by irradiation of oxygen e.g. under normoxic conditions, can not form efficiently under hypoxic conditions.

[2] = Pharmacokinetics in cynomolgus monkeys (20 mg/kg i.v.); assay type: in vivo; details: for Vd: read-out: Vss
Description: Pharmacokinetic studies were performed in male CD-1 (50 mg/kg i.p. or orally (p.o.)) or female nude mice (50 mg/kg i.v. or i.p.), male Sprague-Dawley rats (1, 5, 20 and 50 mg/kg i.v. and 100 mg/kg, p.o.), beagle dogs (20 mg/kg, i.v.) and cynomologus monkeys (20 mg/kg i.v.). Plasma TH302 concentrations were analyzed using a LC/MS method and the pharmacokinetic parameters computed using a noncompartmental method. Interspecies scaling was performed according to standard methods.
Individual and mean pharmacokinetic parameters of TH302 following intravenous administration at a dose of 20 mg/kg (N=3) is shown in Table 7.

[3] = Pharmacokinetics after repeated administration (Q7D×3) to rats; assay type: in vivo; details: rat, plasma; for clearance / AUC / Cmax / half-life / Vd: iv, TH302 in rats; for AUC: read-out: AUC; for Cmax: read-out: Cmax; for half-life: read-out: Half-Life (converted); for Vd: read-out: Vss
Description: Each rat received a 30 minute infusion once a week for three weeks (Q7D×3).
Br-IPM being capable of reacting with water and a number of other nucleophiles, for HPLC analysis of Br-IPM, the plasma obtained was frozen and treated with NaF and potassium oxalate.

[4] = Pharmacokinetics of TH302 in Beagle Dogs (Table 6); assay type: in vivo; details: dog, plasma, intravenous; for half-life: read-out: T½ (converted); for Vd: read-out: Vss
[5] = cynomolgus monkey, plasma, iv, 20 mg/kg, cynomolgus monkeys, Mean (N=3)
[6] = cynomolgus monkey, plasma, iv, 20 mg/kg, monkeys
[7] = cynomolgus monkeys, individual animals, 20 mg/kg

Cn1c(COP(=O)(NCCBr)NCCBr)cnc1[N+](=O)[O-] [TH302]
effect on anti tumor efficacy of radiation [1]: enhances the anti cancer effect of X-ray; also recorded: enhances the anti tumor efficacy of radiation | AUC(0-t) [2, 5]: 3.14 µg·h/mL | clearance [2, 5]: 7.66 L/h/kg | Cmax ([2]; cynomolgus monkey, plasma, iv, 20 mg/kg, cynomolgus monkeys, Mean (N=3), read-out: Cmax): 20.7 µg/mL | MRT ([2]; cynomolgus monkey, plasma, iv, 20 mg/kg, cynomolgus monkeys, Mean (N=3), read-out: MRT): 19.8 min | Vd [2, 5]: 2.92 L/kg | Cmax ([2]; cynomolgus monkey, plasma, iv, 20 mg/kg, cynomolgus monkeys, individual animals, read-out: Cmax): 15.9 µg/mL | MRT ([2]; cynomolgus monkey, plasma, iv, 20 mg/kg, cynomolgus monkeys, individual animals, read-out: MRT): 28.6 min | clearance [2, 6]: 7.66 L/h/kg | Vd [2, 6]: 2.92 L/kg | Tmax ([2]; cynomolgus monkey, plasma, iv, cynomolgus monkeys, individual animals): 1.98 min | half-life ([2]; cynomolgus monkey, plasma, iv, monkeys, read-out: Plasma t1/2): 24.9 min | Vβ ([2]; cynomolgus monkeys, Mean (N=3)): 6.17 L/kg | half-life ([2]; cynomolgus monkeys, Mean (N=3)): 24.9 min | AUClast [2, 7]: 1.519 µg·h/mL and 3.961 µg·h/mL and 3.932 µg·h/mL | Cl [2, 7]: 13.0 L/h/kg and 4.90 L/h/kg and 5.07 L/h/kg | Cmax [2, 7]: 28.5 µg/mL and 17.6 µg/mL | MRT [2, 7]: 14.7 min and 16.1 min | Vss [2, 7]: 6.18 L/kg and 1.20 L/kg and 1.36 L/kg | Vβ [2, 7]: 15.5 L/kg and 1.37 L/kg and 1.65 L/kg | half-life [2, 7]: 49.6 min and 11.6 min and 13.6 min | AUC at 15 day ([3]; intravenous, rats, 25 mg/kg dose of TH302, read-out: drug exposure, AUC of TH302): ~2.11 µg·h/mL | clearance ([3]; 12.5 mg/kg Q7D×3, Day 15): 17.6 L/h/kg | AUC ([3]; 12.5 mg/kg Q7D×3, Day 15): 0.699 µg·h/mL | Cmax ([3]; 12.5 mg/kg Q7D×3, Day 15): 1.21 µg/mL | half-life ([3]; 12.5 mg/kg Q7D×3, Day 15): 16 min | Vd ([3]; 12.5 mg/kg Q7D×3, Day 15): 8.71 L/kg | clearance ([3]; 25 mg/kg Q7D×3, Day 15): 16.5 L/h/kg | AUC ([3]; 25 mg/kg Q7D×3, Day 15): 2.11 µg·h/mL | Cmax ([3]; 25 mg/kg Q7D×3, Day 15): 3.64 µg/mL | half-life ([3]; 25 mg/kg Q7D×3, Day 15): 18.7 min | Vd ([3]; 25 mg/kg Q7D×3, Day 15): 8.28 L/kg | clearance ([3]; 50 mg/kg Q7D×3, Day 15): 11.8 L/h/kg | AUC ([3]; 50 mg/kg Q7D×3, Day 15): 3.25 µg·h/mL | Cmax ([3]; 50 mg/kg Q7D×3, Day 15): 5.72 µg/mL | half-life ([3]; 50 mg/kg Q7D×3, Day 15): 20.8 min | Vd ([3]; 50 mg/kg Q7D×3, Day 15): 5.84 L/kg | AUC ([4]; female, Females, 4 mg/kg): 2.27 µg·h/mL | Cmax ([4]; female, Females, 4 mg/kg): 3.83 µg/mL | Tmax ([4]; female, Females, 4 mg/kg): 31 min | clearance ([4]; female, Females, 4 mg/kg): 1.76 L/h/kg | half-life ([4]; female, Females, 4 mg/kg): 16.1 min | Vd ([4]; female, Females, 4 mg/kg): 0.785 L/kg | AUC ([4]; female, Females, 8 mg/kg): 3.4 µg·h/mL | Cmax ([4]; female, Females, 8 mg/kg): 6.41 µg/mL | Tmax ([4]; female, Females, 8 mg/kg): 31.5 min | clearance ([4]; female, Females, 8 mg/kg): 2.38 L/h/kg | half-life ([4]; female, Females, 8 mg/kg): 15.1 min | Vd ([4]; female, Females, 8 mg/kg): 0.974 L/kg | AUC ([4]; female, Females, 16 mg/kg): 7.66 µg·h/mL | Cmax ([4]; female, Females, 16 mg/kg): 13.7 µg/mL | Tmax ([4]; female, Females, 16 mg/kg): 31 min | clearance ([4]; female, Females, 16 mg/kg): 2.09 L/h/kg | half-life ([4]; female, Females, 16 mg/kg): 16.7 min | Vd ([4]; female, Females, 16 mg/kg): 0.874 L/kg | AUC ([4]; female, Females, 32 mg/kg): 9.53 µg·h/mL | Cmax ([4]; female, Females, 32 mg/kg): 18.5 µg/mL | Tmax ([4]; female, Females, 32 mg/kg): 31 min | clearance ([4]; female, Females, 32 mg/kg): 3.39 L/h/kg | half-life ([4]; female, Females, 32 mg/kg): 15.4 min | Vd ([4]; female, Females, 32 mg/kg): 1.37 L/kg | AUC ([4]; male, Males, 4 mg/kg): 2.33 µg·h/mL | Cmax ([4]; male, Males, 4 mg/kg): 4.16 µg/mL | Tmax ([4]; male, Males, 4 mg/kg): 37 min | clearance ([4]; male, Males, 4 mg/kg): 1.7 L/h/kg | half-life ([4]; male, Males, 4 mg/kg): 16.1 min | Vd ([4]; male, Males, 4 mg/kg): 0.822 L/kg | AUC ([4]; male, Males, 8 mg/kg): 3.64 µg·h/mL | Cmax ([4]; male, Males, 8 mg/kg): 6.35 µg/mL | Tmax ([4]; male, Males, 8 mg/kg): 31.5 min | clearance ([4]; male, Males, 8 mg/kg): 2.23 L/h/kg | half-life ([4]; male, Males, 8 mg/kg): 15.6 min | Vd ([4]; male, Males, 8 mg/kg): 0.982 L/kg | AUC ([4]; male, Males, 16 mg/kg): 6.2 µg·h/mL | Cmax ([4]; male, Males, 16 mg/kg): 10.8 µg/mL | Tmax ([4]; male, Males, 16 mg/kg): 31.5 min | clearance ([4]; male, Males, 16 mg/kg): 2.58 L/h/kg | half-life ([4]; male, Males, 16 mg/kg): 15.5 min | Vd ([4]; male, Males, 16 mg/kg): 1.1 L/kg | AUC ([4]; male, Males, 32 mg/kg): 11 µg·h/mL | Cmax ([4]; male, Males, 32 mg/kg): 23 µg/mL | Tmax ([4]; male, Males, 32 mg/kg): 31.5 min | clearance ([4]; male, Males, 32 mg/kg): 2.91 L/h/kg | half-life ([4]; male, Males, 32 mg/kg): 14.9 min | Vd ([4]; male, Males, 32 mg/kg): 1.12 L/kg
